In PMC12367827, “Prioritisation of co-formulants and plant protection products for non-dietary risk assessment using NAMs” (Archives of Toxicology, 2025):

Key:
CYP1A2 = biological target: T1, CYP1A2 (Homo sapiens, UniProt P05177); assay: P450-Glo luminescence turnover; format: biochemical; conditions: NADPH regeneration system; potassium phosphate buffer; […] °C; luminogenic substrate
T1 construct: recombinant human enzyme in membrane preparation (Promega P450-Glo CYP1A2 Screening System)
T1 sequence (P05177 2-516): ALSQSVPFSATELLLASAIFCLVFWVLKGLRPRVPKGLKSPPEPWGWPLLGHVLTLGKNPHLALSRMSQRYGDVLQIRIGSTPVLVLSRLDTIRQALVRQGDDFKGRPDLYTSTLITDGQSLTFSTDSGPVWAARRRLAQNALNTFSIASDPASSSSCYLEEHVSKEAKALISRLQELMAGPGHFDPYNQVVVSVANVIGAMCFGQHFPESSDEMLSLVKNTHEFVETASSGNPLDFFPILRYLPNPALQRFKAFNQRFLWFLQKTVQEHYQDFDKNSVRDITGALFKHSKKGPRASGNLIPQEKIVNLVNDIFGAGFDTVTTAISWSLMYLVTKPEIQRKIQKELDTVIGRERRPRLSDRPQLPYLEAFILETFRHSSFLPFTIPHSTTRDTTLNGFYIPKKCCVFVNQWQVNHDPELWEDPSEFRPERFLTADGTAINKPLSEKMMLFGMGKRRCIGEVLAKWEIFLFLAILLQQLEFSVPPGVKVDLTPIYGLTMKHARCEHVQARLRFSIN

CYP2C19 = CYP2C19 (Homo sapiens, UniProt P33261); assay: P450-Glo luminescence inhibition assay
Sequence of CYP2C19 (P33261 whole entry): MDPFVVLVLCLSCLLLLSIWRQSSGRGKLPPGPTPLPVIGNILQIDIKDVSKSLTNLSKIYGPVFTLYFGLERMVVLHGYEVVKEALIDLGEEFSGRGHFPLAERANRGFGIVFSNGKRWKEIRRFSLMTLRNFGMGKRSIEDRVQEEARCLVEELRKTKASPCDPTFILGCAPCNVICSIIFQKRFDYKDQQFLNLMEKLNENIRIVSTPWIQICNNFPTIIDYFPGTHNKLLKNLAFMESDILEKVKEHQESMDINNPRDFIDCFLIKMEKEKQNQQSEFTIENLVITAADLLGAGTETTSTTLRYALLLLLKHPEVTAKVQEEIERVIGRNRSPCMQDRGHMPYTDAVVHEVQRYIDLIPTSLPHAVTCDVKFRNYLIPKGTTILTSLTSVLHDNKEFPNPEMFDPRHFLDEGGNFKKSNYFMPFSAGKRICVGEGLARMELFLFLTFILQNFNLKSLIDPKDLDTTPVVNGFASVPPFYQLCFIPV

| IC50 (CYP2C19) | Compound | P450-Glo luminescence turnover (CYP1A2) |
| --- | --- | --- |
| – | COc1ccc2nc(C3=NC(C(=O)O)CS3)sc2c1 (centres unmarked) [Luciferin-ME] | Luciferin-ME (CYP1A2) as luminogenic substrate |
| 4.05 µM | CCCCCCCCCC(=O)N(C)C [NDA, N,N-dimethyldecanamide] | – |
